Measurements taken from ChEMBL document CHEMBL5653631, “A Potent and Selective ULK1 Inhibitor Suppresses Autophagy and Sensitizes Cancer Cells to Nutrient Stress” (iScience, 2018).

Legend:
[1] = target: T1, NUAK family SNF1-like kinase 1 (Homo sapiens) (UniProt O60285); test: Inhibition of human recombinant NuaK1 at 500 nM in presence of ATP by radiometric assay relative to control
T1 sequence (whole entry): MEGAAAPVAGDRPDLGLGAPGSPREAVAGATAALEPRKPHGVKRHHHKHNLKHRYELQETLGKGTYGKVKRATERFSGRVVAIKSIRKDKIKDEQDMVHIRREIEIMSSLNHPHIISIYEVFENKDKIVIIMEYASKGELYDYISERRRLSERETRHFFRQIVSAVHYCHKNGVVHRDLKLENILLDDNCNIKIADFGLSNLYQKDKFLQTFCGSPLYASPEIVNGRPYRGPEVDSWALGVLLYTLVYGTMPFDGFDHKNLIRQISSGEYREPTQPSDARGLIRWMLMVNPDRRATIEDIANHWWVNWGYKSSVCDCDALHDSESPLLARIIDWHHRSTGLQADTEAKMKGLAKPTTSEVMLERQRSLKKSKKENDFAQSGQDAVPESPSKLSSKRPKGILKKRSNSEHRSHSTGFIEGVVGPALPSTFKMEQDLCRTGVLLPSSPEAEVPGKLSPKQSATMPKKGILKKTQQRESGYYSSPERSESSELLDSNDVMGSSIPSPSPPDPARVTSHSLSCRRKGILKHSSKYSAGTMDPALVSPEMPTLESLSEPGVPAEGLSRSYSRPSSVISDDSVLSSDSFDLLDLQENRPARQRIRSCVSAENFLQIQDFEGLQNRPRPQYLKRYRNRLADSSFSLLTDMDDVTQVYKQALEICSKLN

[2] = target: Serine/threonine-protein kinase 38-like (Homo sapiens) (UniProt Q9Y2H1); test: Inhibition of human recombinant NDR2 at 15 nM in presence of ATP by radiometric assay relative to control
[3] = target: T2, Serine/threonine-protein kinase 17B (Homo sapiens) (UniProt O94768); test: Inhibition of human recombinant DRAK2 at 15 nM related to control ULK1
T2 sequence (whole entry): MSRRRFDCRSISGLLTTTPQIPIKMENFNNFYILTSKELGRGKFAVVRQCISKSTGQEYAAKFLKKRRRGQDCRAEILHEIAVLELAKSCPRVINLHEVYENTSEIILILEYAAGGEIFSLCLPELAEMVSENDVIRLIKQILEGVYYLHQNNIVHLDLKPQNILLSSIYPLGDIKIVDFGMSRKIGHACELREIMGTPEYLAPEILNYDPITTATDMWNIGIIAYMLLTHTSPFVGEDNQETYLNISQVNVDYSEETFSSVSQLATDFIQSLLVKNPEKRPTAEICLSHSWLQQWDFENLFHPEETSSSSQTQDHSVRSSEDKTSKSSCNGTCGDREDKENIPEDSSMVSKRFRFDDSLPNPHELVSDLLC

[4] = target: Phosphorylase b kinase gamma catalytic chain, skeletal muscle/heart isoform (Homo sapiens) (UniProt Q16816); test: Inhibition of human recombinant PHKg1 at 15 nM related to control ULK1
[5] = target: Tau-tubulin kinase 1 (Homo sapiens) (UniProt Q5TCY1); test: Inhibition of human recombinant TTBK1 at 15 nM related to control ULK1
[6] = target: T3, SNF-related serine/threonine-protein kinase (Homo sapiens) (UniProt Q9NRH2); test: Inhibition of human recombinant SNRK at 40 nM in presence of ATP by radiometric assay relative to control
T3 sequence (whole entry): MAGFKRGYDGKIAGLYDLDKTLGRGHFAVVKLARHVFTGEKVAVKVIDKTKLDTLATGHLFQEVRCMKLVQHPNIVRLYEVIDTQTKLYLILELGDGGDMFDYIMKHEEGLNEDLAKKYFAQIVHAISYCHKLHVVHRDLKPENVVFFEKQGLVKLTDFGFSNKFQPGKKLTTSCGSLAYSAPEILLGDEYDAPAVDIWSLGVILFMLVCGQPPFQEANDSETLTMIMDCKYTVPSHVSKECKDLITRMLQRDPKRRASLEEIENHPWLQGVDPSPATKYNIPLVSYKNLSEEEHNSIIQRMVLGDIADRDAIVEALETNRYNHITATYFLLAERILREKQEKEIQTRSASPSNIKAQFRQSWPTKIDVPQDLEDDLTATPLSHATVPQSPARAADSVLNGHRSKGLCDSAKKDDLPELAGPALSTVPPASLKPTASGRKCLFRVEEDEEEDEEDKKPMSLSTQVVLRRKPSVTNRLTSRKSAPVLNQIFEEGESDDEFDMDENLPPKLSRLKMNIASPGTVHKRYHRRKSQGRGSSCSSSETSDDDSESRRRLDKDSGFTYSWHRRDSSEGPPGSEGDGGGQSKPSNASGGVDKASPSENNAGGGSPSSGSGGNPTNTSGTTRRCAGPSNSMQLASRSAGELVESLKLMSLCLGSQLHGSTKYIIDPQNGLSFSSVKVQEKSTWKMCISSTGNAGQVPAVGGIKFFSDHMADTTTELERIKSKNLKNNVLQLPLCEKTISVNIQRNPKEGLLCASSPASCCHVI

[7] = target: T4, Tyrosine-protein kinase receptor TYRO3 (Homo sapiens) (UniProt Q06418); test: Inhibition of human recombinant TYRO3 at 40 nM in presence of ATP by radiometric assay relative to control
T4 sequence (whole entry): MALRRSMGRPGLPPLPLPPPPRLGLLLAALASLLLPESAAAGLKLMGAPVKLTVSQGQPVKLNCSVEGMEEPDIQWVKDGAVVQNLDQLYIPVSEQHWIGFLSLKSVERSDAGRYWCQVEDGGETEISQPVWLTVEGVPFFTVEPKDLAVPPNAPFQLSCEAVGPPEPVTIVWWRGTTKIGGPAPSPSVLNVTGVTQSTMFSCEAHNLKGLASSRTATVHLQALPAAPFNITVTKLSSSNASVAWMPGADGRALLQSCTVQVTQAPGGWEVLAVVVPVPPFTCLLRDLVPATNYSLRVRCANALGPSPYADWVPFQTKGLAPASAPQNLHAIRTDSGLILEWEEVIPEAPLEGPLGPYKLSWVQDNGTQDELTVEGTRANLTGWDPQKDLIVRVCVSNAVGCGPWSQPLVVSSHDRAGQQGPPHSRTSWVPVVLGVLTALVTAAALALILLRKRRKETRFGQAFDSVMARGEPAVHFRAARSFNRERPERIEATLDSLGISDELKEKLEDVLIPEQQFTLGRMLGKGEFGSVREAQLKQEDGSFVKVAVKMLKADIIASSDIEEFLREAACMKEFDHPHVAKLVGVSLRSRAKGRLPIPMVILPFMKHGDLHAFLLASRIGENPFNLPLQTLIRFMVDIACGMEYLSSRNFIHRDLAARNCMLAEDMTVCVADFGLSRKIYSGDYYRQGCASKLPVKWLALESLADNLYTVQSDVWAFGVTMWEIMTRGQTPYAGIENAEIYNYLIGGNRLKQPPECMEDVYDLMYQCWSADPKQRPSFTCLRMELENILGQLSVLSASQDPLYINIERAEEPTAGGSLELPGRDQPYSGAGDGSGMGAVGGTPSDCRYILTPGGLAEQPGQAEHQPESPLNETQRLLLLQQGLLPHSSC

Chain of Serine/threonine-protein kinase 38-like (Homo sapiens) (Q9Y2H1 2-464 limits assumed): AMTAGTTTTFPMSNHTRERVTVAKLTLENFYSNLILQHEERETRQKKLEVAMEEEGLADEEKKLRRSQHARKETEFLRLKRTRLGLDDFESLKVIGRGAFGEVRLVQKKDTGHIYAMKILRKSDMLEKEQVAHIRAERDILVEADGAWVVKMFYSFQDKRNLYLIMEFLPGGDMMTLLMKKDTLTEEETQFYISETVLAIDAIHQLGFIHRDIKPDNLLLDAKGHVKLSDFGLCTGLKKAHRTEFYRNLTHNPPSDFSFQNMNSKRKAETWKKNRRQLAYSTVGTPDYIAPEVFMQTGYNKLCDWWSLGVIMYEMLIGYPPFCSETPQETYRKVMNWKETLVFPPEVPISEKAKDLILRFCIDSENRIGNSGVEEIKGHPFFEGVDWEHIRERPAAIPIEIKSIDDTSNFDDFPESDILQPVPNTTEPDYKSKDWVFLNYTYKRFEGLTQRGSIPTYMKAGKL
Chain of Phosphorylase b kinase gamma catalytic chain, skeletal muscle/heart isoform (Homo sapiens) (Q16816 whole entry, looked up, canonical isoform): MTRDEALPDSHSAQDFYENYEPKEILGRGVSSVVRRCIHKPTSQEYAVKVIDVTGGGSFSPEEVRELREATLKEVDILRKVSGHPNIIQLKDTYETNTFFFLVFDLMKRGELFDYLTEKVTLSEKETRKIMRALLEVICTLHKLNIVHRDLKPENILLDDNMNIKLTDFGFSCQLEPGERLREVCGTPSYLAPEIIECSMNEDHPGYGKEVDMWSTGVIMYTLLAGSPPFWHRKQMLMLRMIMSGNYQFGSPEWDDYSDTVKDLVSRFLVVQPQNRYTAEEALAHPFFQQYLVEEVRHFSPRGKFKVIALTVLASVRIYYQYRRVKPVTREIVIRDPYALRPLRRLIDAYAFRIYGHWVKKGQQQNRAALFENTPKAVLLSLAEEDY
Chain of Tau-tubulin kinase 1 (Homo sapiens) (Q5TCY1 whole entry): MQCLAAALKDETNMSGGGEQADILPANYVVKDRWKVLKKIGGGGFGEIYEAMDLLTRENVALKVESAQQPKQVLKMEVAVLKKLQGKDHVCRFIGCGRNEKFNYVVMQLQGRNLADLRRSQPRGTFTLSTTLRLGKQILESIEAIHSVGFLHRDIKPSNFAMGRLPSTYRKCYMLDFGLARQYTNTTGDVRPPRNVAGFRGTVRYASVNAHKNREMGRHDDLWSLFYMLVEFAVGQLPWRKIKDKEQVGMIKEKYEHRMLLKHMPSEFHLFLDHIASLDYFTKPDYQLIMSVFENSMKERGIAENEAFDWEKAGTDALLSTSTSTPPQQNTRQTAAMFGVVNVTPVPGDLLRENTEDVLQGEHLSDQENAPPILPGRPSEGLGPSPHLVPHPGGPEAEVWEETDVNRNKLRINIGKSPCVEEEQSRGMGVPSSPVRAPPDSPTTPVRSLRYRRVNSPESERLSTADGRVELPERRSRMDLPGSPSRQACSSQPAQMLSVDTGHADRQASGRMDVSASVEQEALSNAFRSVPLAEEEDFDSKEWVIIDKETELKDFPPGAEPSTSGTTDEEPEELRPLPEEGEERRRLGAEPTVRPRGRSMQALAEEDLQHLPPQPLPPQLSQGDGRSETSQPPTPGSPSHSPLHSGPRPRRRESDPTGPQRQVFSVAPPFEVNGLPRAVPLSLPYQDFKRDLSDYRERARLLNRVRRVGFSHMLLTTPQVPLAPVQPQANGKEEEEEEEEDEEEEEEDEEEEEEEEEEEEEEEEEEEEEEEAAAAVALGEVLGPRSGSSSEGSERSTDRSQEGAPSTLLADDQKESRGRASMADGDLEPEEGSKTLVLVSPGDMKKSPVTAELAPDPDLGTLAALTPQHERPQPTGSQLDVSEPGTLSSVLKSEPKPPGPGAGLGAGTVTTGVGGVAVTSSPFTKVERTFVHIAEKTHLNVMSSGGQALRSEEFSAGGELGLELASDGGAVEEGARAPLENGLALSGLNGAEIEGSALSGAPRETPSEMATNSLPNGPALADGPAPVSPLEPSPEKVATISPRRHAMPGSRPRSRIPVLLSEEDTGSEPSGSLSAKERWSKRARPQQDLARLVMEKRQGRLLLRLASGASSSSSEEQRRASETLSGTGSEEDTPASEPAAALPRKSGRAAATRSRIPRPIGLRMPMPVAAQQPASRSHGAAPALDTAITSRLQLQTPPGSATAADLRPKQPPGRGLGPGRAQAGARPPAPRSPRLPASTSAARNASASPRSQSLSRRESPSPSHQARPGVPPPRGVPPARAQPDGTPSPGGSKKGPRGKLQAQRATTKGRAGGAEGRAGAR

CNC(=O)c1ccccc1Oc1nc(Nc2cc(OC)c(OC)c(OC)c2)ncc1Br
inhibition [1]: 71%

CC(C)[C@H](NC(=O)c1cc(-c2cnn3cc(-c4ccc(OCCN5CCCCC5)cc4)cnc23)cs1)C(F)(F)F
inhibition [2]: 2% | fold change (FC) [3]: 0.78 | fold change (FC) [4]: 0.58 | fold change (FC) [5]: 0

O=C(N[C@@H](C1CC1)C(F)(F)F)c1cc(-c2cnn3cc(-c4ccc(F)cc4)cnc23)cs1
inhibition [6]: 0% | inhibition [7]: 0%
